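Five concentrations, 48 hours, 96-well plates. The concentration for 50% growth inhibition is given as GI50.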 The source made the active and inactive calls. No stated cut-off is given here; in the data, active = GI50 up to about 1.1 µM and inactive = higher. Where a SMILES comes first, the peptide text is derived from it. [ ]: non-standard residue; d: D form. The star is where a group is joined. NMeF = CN[CH](Cc1ccccc1)C(=O)O; NMeV = CN[CH](C(=O)O)C(C)C; Boc = CC(C)(C)OC(=O)*; OBn = c1ccc(CO*)cc1
Tests used:
Test in all cases: inhibition of tumour cell growth, NCI panel, 48 h
SNB-75 = test system: SNB-75
CCRF-CEM = test system: CCRF-CEM
OVCAR-5 = test system: OVCAR-5
IGROV-1 = test system: IGROV-1
HL-60 = test system: HL-60
SF-295 = test system: SF-295
HCT-116 = test system: HCT-116
NCI-H522 = test system: NCI-H522
OVCAR-8 = test system: OVCAR-8
NCI-H226 = test system: NCI-H226
SW-620 = test system: SW-620
DMS-273 = test system: DMS-273
LOX IMVI = test system: LOX IMVI
EKVX = test system: EKVX
U-251 = test system: U-251
PC-3 = test system: PC-3
NCI/ADR-RES = test system: NCI/ADR-RES
MDA-MB-435 = test system: MDA-MB-435
T47D = test system: T47D
DU-145 = test system: DU-145

| SMILES | GI50 (SNB-75) | GI50 (CCRF-CEM) | GI50 (OVCAR-5) | GI50 (IGROV-1) | GI50 (HL-60) | GI50 (SF-295) | GI50 (HCT-116) | GI50 (NCI-H522) | GI50 (OVCAR-8) | GI50 (NCI-H226) | GI50 (SW-620) | GI50 (DMS-273) | GI50 (LOX IMVI) | GI50 (EKVX) | GI50 (U-251) | GI50 (PC-3) | GI50 (NCI/ADR-RES) | GI50 (MDA-MB-435) | GI50 (T47D) | GI50 (DU-145) |
| --- | --- | --- | --- | --- | --- | --- | --- | --- | --- | --- | --- | --- | --- | --- | --- | --- | --- | --- | --- | --- |
| COc1ccc(NC(=O)CC2SC(Nc3ccc(Cl)cc3C)=NC2=O)c([N+](=O)[O-])c1 (configuration not stated) | > 100 µM (inactive) | > 100 µM (inactive) | > 100 µM (inactive) | > 100 µM (inactive) | > 100 µM (inactive) | > 100 µM (inactive) | > 100 µM (inactive) | > 100 µM (inactive) | > 100 µM (inactive) | > 100 µM (inactive) | > 100 µM (inactive) | > 100 µM (inactive) | > 100 µM (inactive) | > 100 µM (inactive) | > 100 µM (inactive) | – | – | – | – | – |
| c1ccc(CNn2nnc3ccccc32)cc1 | > 100 µM (inactive) | > 100 µM (inactive) | > 100 µM (inactive) | > 100 µM (inactive) | > 100 µM (inactive) | > 100 µM (inactive) | – | > 100 µM (inactive) | > 100 µM (inactive) | – | > 100 µM (inactive) | > 100 µM (inactive) | > 100 µM (inactive) | > 100 µM (inactive) | – | – | – | – | – | – |
| O=c1c2c(c1=O)-c1ccccc1CN2 | > 100 µM (inactive) | > 100 µM (inactive) | > 100 µM (inactive) | > 100 µM (inactive) | > 100 µM (inactive) | – | > 100 µM (inactive) | > 100 µM (inactive) | > 100 µM (inactive) | > 100 µM (inactive) | > 100 µM (inactive) | > 100 µM (inactive) | > 100 µM (inactive) | > 100 µM (inactive) | > 100 µM (inactive) | – | – | – | – | – |
| CC(C)OP(=O)(OC(C)C)/C(=N/Nc1ccccc1[N+](=O)[O-])NCCN/C(=N\Nc1ccccc1[N+](=O)[O-])P(=O)(OC(C)C)OC(C)C | 89.3 µM (inactive) | 22.2 µM (inactive) | 24.2 µM (inactive) | 27.9 µM (inactive) | 23.7 µM (inactive) | – | 27.9 µM (inactive) | 31.8 µM (inactive) | 39.5 µM (inactive) | 24.4 µM (inactive) | 35.5 µM (inactive) | 35.2 µM (inactive) | 30.2 µM (inactive) | 28.9 µM (inactive) | 29.6 µM (inactive) | – | – | – | – | – |
| COc1ccc([C@@H]2CC(=O)NCCCNCCCCNCCCN2)cc1 | > 100 µM (inactive) | > 100 µM (inactive) | > 100 µM (inactive) | > 100 µM (inactive) | > 100 µM (inactive) | > 100 µM (inactive) | > 100 µM (inactive) | 30.8 µM (inactive) | > 100 µM (inactive) | 79.6 µM (inactive) | > 100 µM (inactive) | > 100 µM (inactive) | – | > 100 µM (inactive) | > 100 µM (inactive) | – | – | – | – | – |
| NC1=NS(=O)(=O)Nc2nc(-c3ccc(Cl)cc3)[nH]c21 | 62.7 µM (inactive) | > 100 µM (inactive) | > 100 µM (inactive) | > 100 µM (inactive) | > 100 µM (inactive) | > 100 µM (inactive) | > 100 µM (inactive) | > 100 µM (inactive) | > 100 µM (inactive) | – | > 100 µM (inactive) | > 100 µM (inactive) | > 100 µM (inactive) | – | > 100 µM (inactive) | – | – | – | – | – |
| [O-][n+]1c2c([n+]([O-])c3ccccc31)CCCCCCCCCC2 | > 100 µM (inactive) | 85.7 µM (inactive) | – | > 100 µM (inactive) | 44.1 µM (inactive) | > 100 µM (inactive) | > 100 µM (inactive) | 77.1 µM (inactive) | – | 14.2 µM (inactive) | > 100 µM (inactive) | > 100 µM (inactive) | > 100 µM (inactive) | > 100 µM (inactive) | > 100 µM (inactive) | – | – | – | – | – |
| O=C(O)c1ccc(C2C3C=CC(C3)C2[N+](=O)[O-])cc1 (configuration not stated) | 91.2 µM (inactive) | > 100 µM (inactive) | – | > 100 µM (inactive) | > 100 µM (inactive) | > 100 µM (inactive) | – | > 100 µM (inactive) | > 100 µM (inactive) | > 100 µM (inactive) | > 100 µM (inactive) | > 100 µM (inactive) | > 100 µM (inactive) | > 100 µM (inactive) | > 100 µM (inactive) | – | – | – | – | – |
| CC(C)(CN1CCCCC1)C(=O)CC(SCCN)c1ccc(Cl)cc1 (configuration not stated) | 1.98 µM (inactive) | 1.55 µM (inactive) | 3.66 µM (inactive) | 2.7 µM (inactive) | – | 3.22 µM (inactive) | 2.37 µM (inactive) | 2.18 µM (inactive) | 2.04 µM (inactive) | 3.52 µM (inactive) | 1.76 µM (inactive) | 1.98 µM (inactive) | 2.09 µM (inactive) | 1.74 µM (inactive) | 3.12 µM (inactive) | – | – | – | – | – |
| O=Cc1ccccc1COC(=O)c1cc(C(=O)OCc2ccccc2C=O)c(C(=O)OCc2ccccc2C=O)cc1C(=O)OCc1ccccc1C=O | 21.5 µM (inactive) | 43.4 µM (inactive) | > 100 µM (inactive) | > 100 µM (inactive) | 38.2 µM (inactive) | 64.6 µM (inactive) | 31.9 µM (inactive) | > 100 µM (inactive) | 80 µM (inactive) | > 100 µM (inactive) | > 100 µM (inactive) | 30.3 µM (inactive) | 42 µM (inactive) | > 100 µM (inactive) | 47.1 µM (inactive) | – | – | – | – | – |
| CC(=O)O[C@]12CCCC1C1(O)C(O)CCCC12 (some centres not stated) | > 100 µM (inactive) | > 100 µM (inactive) | – | – | > 100 µM (inactive) | > 100 µM (inactive) | > 100 µM (inactive) | > 100 µM (inactive) | > 100 µM (inactive) | > 100 µM (inactive) | > 100 µM (inactive) | > 100 µM (inactive) | > 100 µM (inactive) | > 100 µM (inactive) | > 100 µM (inactive) | – | – | – | – | – |
| O=C1C2c3[nH]c4ccccc4c3C3CCCCC3C2C(=O)N1c1ccccc1 (configuration not stated) | 11.3 µM (inactive) | 85.1 µM (inactive) | > 100 µM (inactive) | 72.1 µM (inactive) | > 100 µM (inactive) | 48.9 µM (inactive) | – | – | > 100 µM (inactive) | > 100 µM (inactive) | > 100 µM (inactive) | 85.3 µM (inactive) | > 100 µM (inactive) | > 100 µM (inactive) | > 100 µM (inactive) | – | – | – | – | – |
| Clc1cc(Cl)c2n[se]nc2c1 | 60.1 µM (inactive) | > 100 µM (inactive) | > 100 µM (inactive) | > 100 µM (inactive) | > 100 µM (inactive) | > 100 µM (inactive) | > 100 µM (inactive) | > 100 µM (inactive) | > 100 µM (inactive) | – | > 100 µM (inactive) | > 100 µM (inactive) | 69.7 µM (inactive) | > 100 µM (inactive) | > 100 µM (inactive) | – | – | – | – | – |
| COc1cc2c(cc1[N+](=O)[O-])C(=O)C(Br)(Br)CCC2 | 13.1 µM (inactive) | 0.101 µM (active) | 1.91 µM (inactive) | 0.955 µM (active) | 3.22 µM (inactive) | 6.52 µM (inactive) | 0.697 µM (active) | 0.771 µM (active) | 2.25 µM (inactive) | 3.47 µM (inactive) | 1.88 µM (inactive) | – | 0.4 µM (active) | 2.12 µM (inactive) | 2.23 µM (inactive) | 5 µM (inactive) | 2.68 µM (inactive) | 2.81 µM (inactive) | 2.68 µM (inactive) | 7.18 µM (inactive) |
| Cc1nc(-c2cccnc2)sc1C(=O)/C=C/c1ccc(Cl)cc1Cl | 92.9 µM (inactive) | 47.5 µM (inactive) | > 100 µM (inactive) | > 100 µM (inactive) | 51.3 µM (inactive) | > 100 µM (inactive) | – | 94.6 µM (inactive) | > 100 µM (inactive) | > 100 µM (inactive) | 71.9 µM (inactive) | > 100 µM (inactive) | 95.3 µM (inactive) | > 100 µM (inactive) | > 100 µM (inactive) | – | – | – | – | – |
| O=C(OC1CCC(=C2SCCCS2)[C@H]1C1SCCCS1)c1ccccc1 (some centres not stated) | – | > 100 µM (inactive) | – | > 100 µM (inactive) | 52.7 µM (inactive) | > 100 µM (inactive) | 88.3 µM (inactive) | – | > 100 µM (inactive) | 30.5 µM (inactive) | > 100 µM (inactive) | > 100 µM (inactive) | > 100 µM (inactive) | > 100 µM (inactive) | > 100 µM (inactive) | – | – | – | – | – |
| O=c1ncccn1C1OC(CO)C(O)C1O (configuration not stated) | > 100 µM (inactive) | > 100 µM (inactive) | > 100 µM (inactive) | > 100 µM (inactive) | – | – | > 100 µM (inactive) | > 100 µM (inactive) | > 100 µM (inactive) | > 100 µM (inactive) | > 100 µM (inactive) | > 100 µM (inactive) | > 100 µM (inactive) | > 100 µM (inactive) | > 100 µM (inactive) | – | – | – | – | – |
| CC(C)C(NC(=O)OC(C)(C)C)C(=O)N(C)C(Cc1ccccc1)C(=O)N(C)C(C(=O)N(C)C(C(=O)OCc1ccccc1)C(C)C)C(C)C (configuration not stated) (Boc-V[NMeF][NMeV][NMeV]-OBn; configuration not given here) | – | 48.5 µM (inactive) | – | > 100 µM (inactive) | > 100 µM (inactive) | 51.2 µM (inactive) | 66.5 µM (inactive) | 16.7 µM (inactive) | > 100 µM (inactive) | > 100 µM (inactive) | > 100 µM (inactive) | 72.8 µM (inactive) | > 100 µM (inactive) | 89.1 µM (inactive) | > 100 µM (inactive) | – | – | – | – | – |
| COc1nc(N(C)C)nc2c1[n+](C)cn2C [HETEROMINE A] | > 100 µM (inactive) | 30.3 µM (inactive) | > 100 µM (inactive) | > 100 µM (inactive) | 36.6 µM (inactive) | 38.9 µM (inactive) | 77.8 µM (inactive) | 17.1 µM (inactive) | 44.1 µM (inactive) | > 100 µM (inactive) | 57.5 µM (inactive) | – | 84.5 µM (inactive) | > 100 µM (inactive) | 15.6 µM (inactive) | > 100 µM (inactive) | > 100 µM (inactive) | 74.8 µM (inactive) | 41.5 µM (inactive) | > 100 µM (inactive) |

From ChEMBL document CHEMBL1201862, “PubChem BioAssay data set” (2004)
